Like-named read-outs stand apart in the source and are kept apart here.

In data set [1] the target is T1, recombinant BoNTAe (BoNTA endopeptidase) (Clostridium botulinum, UniProt P0DPI0). Particulars: cited from earlier work.
For data set [2] the following is noted: Balb/c, mouse, in vivo, ip, 2 mg/kg.
A further data set can be described thus: in vivo. To be noted: Balb/c, mouse, ip, 2 mg/kg.
For data set [3], the target named is T1, recombinant BoNTAe (BoNTA endopeptidase). Nature of the data set: biochemical. Particulars: read-out: % BoNTAe inhibition.
The conditions of data set [4]: mouse, in vivo.
The nature of another data set: physchem. To be noted: water.
The next data set deals with BoNTA (Clostridium botulinum, UniProt P0DPI0). On the set-up: species or system Balb/c mice. Particulars: mouse, in vivo.

On to `NCCCCn1c(-c2ccccc2)cc2ccc(C(=O)c3cc(CC(=O)NO)c(-c4ccccc4)s3)cc21` [APH, reference compound], for which the Ki in data set [1] (read-out: Ki^app) was 7 µM.
With `NCCCCn1c(-c2ccccc2)c(F)c2ccc(C(=O)c3cc(CC(=O)NO)c(-c4cccc(N)c4)s3)cc21` [Inhibitor F3A, 2-(5-(1-(4-Aminobutyl)-3-fluoro-2-phenyl-1H-indole-6-carbonyl)-2-(3-aminophenyl)thiophen-3-yl)-N-hydroxyacetamide], the “C24 (concentration 24 hours after one dose)” value in data set [2] amounted to 7.0 ng/mL. In the data set “in vivo”, the AUC(0-t) (usually the area under the concentration-time curve up to a stated or last time point) amounted to 1390 ng·h/mL and the concentration peaked (Cmax) at 256 ng/mL. The half-life (in general, the time needed for the level to fall by half in the phase considered) in “in vivo” (T1/2) was 6.25 h. The compound further showed a half-life in “in vivo” (in vivo half-life (t1/2)) of around 6 h. Moreover, the inhibition (as a rule, how much of the control response was suppressed) at 20 µM in data set [3] stood at 47 ± 1%. The “acute toxicity to mice, in words” value in data set [4] is recorded as “no acute toxicity”. For the same compound, in “physchem”, the solubility (in general, the dissolved amount per volume that the medium holds) was at least 5 mM. Moreover, at BoNTA, the “survival during the 12-hour period after the BoNTA challenge, in words” value (“survival during the 12-hour period” for short) is recorded as “all mice treated with any of the three inhibitors survived” and the “treated mice that died 48 hours after the toxin challenge” value (shortened to “treated mice that died 48 hours”) is reported as 90%.
As to `NCCCCn1c(-c2ccccc2)c(F)c2ccc(C(=O)c3cc(CC(=O)NO)c(-c4ccc(O)cc4)s3)cc21` [Inhibitor F4H, 2-(5-(1-(4-Aminobutyl)-3-fluoro-2-phenyl-1H-indole-6-carbonyl)-2-(4-hydroxyphenyl)thiophen-3-yl)-N-hydroxyacetamide], in data set [2], the “C24 (concentration 24 hours after one dose)” value is below 0.5 ng/mL. Also, in “in vivo”, the AUC(0-t) worked out at 1390 ng·h/mL and the Cmax (commonly the highest concentration seen after dosing) turned out to be 738 ng/mL. In the data set “in vivo” (T1/2), the half-life is 6.5 h. Also, the half-life in “in vivo” (in vivo half-life (t1/2)) is around 6 h. Further, the inhibition at 20 µM in data set [3] is 82 ± 6%. In addition, the “acute toxicity to mice, in words” value in data set [4] is given as “no acute toxicity”. Moreover, in the data set “physchem”, the solubility is at least 5 mM. For the same compound, at BoNTA, the “protection (survival) of mice 24 hours after the toxin challenge” value worked out at 70%; the “protection (survival) of mice 48 hours after the toxin challenge” value was 60%; the “protection (survival) of mice during the 12-hour period after the toxin challenge” value is 100%; the “survival during the 12-hour period” value is reported as “all mice treated with any of the three inhibitors survived”. For the same compound, the “treated mice that died 48 hours” value at BoNTA was 40%.
As to `NCCCCn1c(-c2ccccc2)cc2ccc(C(=O)c3cc(CC(=O)NO)c(-c4cccc(O)c4)s3)cc21` [Inhibitor H3H], the “C24 (concentration 24 hours after one dose)” value in data set [2] was 3.0 ng/mL. Besides, the “serotype specificity of BoNTAe inhibition, in words” value in data set [1] is given as “serotype-specific”. The Ki was 3.8 ± 0.77 µM in data set [1] (read-out: Ki app) and 4 µM in data set [1] (read-out: Ki^app). Besides, in the data set “in vivo”, the AUC(0-t) stood at 1550 ng·h/mL. The Cmax in the data set “in vivo” was 497 ng/mL. Besides, the half-life in the data set “in vivo” (T1/2) was 4.35 h; in the data set “in vivo” (in vivo half-life (t1/2)), around 4 h. The inhibition at 20 µM in data set [3] was 78 ± 4%. Moreover, in data set [4], the “acute toxicity to mice, in words” value is given as “no acute toxicity”. Besides, the “survival during the 12-hour period” value at BoNTA was “all mice treated with any of the three inhibitors survived”. For the same compound, the “treated mice that died 48 hours” value on BoNTA amounted to 40%.
